What all share (format): binding
For one assay, the target named is T1, CHRM1 (Homo sapiens, UniProt P11229).
T1 construct: purchased Promega (in-house HiBiT-GPCR construct library, NanoBRET)
T1 sequence (P11229 1-460): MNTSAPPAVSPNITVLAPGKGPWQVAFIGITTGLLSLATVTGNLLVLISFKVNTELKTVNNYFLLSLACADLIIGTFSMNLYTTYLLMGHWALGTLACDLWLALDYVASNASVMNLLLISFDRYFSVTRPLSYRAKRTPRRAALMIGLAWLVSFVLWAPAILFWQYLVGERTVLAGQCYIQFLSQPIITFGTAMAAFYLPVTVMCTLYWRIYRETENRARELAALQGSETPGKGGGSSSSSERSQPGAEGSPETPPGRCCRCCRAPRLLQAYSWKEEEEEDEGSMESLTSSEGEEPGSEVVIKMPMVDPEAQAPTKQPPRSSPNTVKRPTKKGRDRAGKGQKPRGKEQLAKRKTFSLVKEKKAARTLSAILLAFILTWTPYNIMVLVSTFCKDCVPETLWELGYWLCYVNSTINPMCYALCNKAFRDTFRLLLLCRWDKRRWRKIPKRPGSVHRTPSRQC
The assay can be described thus: NanoBRET screen HiBiT-CHRM1 in HEK293. (In BRET a luciferase serves as donor, and the signal depends on an acceptor being close.)

A further assay deals with T2, CHRM3 (Homo sapiens, UniProt P20309).
T2 construct: purchased Promega (in-house HiBiT-GPCR construct library, NanoBRET)
T2 sequence (P20309 whole entry): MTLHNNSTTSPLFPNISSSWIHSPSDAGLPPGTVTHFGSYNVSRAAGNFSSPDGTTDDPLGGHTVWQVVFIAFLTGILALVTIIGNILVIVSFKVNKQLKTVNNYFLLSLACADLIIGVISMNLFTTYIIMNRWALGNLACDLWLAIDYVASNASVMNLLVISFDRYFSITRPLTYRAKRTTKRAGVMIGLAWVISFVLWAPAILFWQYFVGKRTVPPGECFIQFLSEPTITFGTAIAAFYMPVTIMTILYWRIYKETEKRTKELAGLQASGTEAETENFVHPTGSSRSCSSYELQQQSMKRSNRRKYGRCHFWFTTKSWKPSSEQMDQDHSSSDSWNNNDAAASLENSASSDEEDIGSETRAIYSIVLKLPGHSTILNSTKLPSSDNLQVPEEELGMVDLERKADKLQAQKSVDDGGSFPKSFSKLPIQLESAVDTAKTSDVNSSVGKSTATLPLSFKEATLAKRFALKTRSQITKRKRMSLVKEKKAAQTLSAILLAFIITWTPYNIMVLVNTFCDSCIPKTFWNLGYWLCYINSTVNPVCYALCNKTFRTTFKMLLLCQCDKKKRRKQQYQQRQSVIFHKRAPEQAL
The assay can be described thus: NanoBRET screen HiBiT-CHRM3 in HEK293.

A further assay concerns the target T3, HRH1 (Homo sapiens, UniProt P35367).
T3 construct: purchased Promega (in-house HiBiT-GPCR construct library, NanoBRET)
Put plainly: NanoBRET screen HiBiT-HRH1 in HEK293.

In a further assay the target is T4, PDGFRB (Homo sapiens, UniProt P09619).
T4 construct: purchased Promega (in-house HiBiT-GPCR construct library, NanoBRET)
T4 sequence (P09619 33-1106): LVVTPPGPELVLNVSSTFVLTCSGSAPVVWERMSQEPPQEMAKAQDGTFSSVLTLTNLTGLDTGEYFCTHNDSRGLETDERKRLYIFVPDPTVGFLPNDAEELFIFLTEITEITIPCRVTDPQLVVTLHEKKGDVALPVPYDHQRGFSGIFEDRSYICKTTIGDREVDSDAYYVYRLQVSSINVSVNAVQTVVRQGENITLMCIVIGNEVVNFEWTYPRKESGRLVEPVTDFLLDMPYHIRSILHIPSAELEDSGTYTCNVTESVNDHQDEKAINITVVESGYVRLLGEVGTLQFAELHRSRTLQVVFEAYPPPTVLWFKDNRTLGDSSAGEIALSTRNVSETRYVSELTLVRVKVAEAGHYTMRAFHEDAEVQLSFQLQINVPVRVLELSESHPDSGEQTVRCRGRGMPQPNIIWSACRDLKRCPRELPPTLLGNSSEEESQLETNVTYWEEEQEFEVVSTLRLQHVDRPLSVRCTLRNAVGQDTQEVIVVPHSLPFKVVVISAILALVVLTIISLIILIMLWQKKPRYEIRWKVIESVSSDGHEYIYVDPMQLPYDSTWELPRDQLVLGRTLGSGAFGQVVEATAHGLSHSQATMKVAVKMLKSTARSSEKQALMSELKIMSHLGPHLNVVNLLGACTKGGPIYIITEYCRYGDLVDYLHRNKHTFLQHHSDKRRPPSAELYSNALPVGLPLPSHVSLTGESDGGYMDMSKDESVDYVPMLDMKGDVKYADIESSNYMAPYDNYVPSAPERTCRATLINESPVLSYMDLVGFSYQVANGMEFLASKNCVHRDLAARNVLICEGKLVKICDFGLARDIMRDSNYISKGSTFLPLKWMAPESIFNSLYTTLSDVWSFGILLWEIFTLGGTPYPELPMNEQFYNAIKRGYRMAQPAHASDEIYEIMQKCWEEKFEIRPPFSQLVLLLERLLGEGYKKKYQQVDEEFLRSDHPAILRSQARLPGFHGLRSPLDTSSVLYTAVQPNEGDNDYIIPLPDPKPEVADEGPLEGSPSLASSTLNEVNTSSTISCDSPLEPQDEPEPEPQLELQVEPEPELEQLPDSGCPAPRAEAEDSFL
The assay can be described thus: NanoBRET screen HiBiT-PDGFRB in HEK293. Here is the method:
Each tracer candidate was screened across the entire library of HiBiT-GPCR constructs using NanoBRET as the detection modality. As depicted in Figure 4A, the specificity of interactions was evaluated through decrease in BRET due to competitive displacement of a bound tracer by excess parental compound. Each tracer was analyzed for binding to each HiBiT-GPCR fusion in the absence and in the presence of competing parental compound. Briefly, HEK293 cells were transfected with HiBiT-GPCR constructs diluted into promoterless DNA to reduce expression and maximize translocation to the cell surface. Each tracer candidate was then screened at concentrations of 1 μM and 0.1 μM across cells expressing these fusions. Cells were treated for 1.5 h with tracer either alone or in the presence of 20 μM competing parental compound (i.e., control). BRET was measured upon addition of purified LgBiT and subsequent complementation with HiBiT genetically fused to a GPCR. The specificity of interactions was assessed through a decrease in BRET signal due to competitive displacement of the bound tracer. To further gauge the robustness of these interactions, the fold response over the control (i.e., BRETtracer/BRETcontrol) was calculated. We chose a 1.5-fold response, which translates to ≥7-fold signal over noise as the minimal threshold required to score an interaction as positive. […]. Below we highlight the screening results obtained for our exemplary fluorescent tracers based on Clozapine, Amitriptyline and AZD1283.
HiBiT-GPCR DNA constructs were diluted in 10 mM Tris pH 8 to a final concentration of 0.01 μg/μL, arrayed in 96-well plates and stored at −20 °C. For transfection, HEK293 cells were suspended in Opti-MEM (without phenol red) supplemented with 2% fetal bovine serum (Seradigm) and 100 units/mL penicillin–streptomycin (Gibco) at a final concentration of 220,000 cells/mL and dispensed into white 96-well plates at 90 μL/well. Subsequent transfections and screens were carried using an Agilent Bravo Automated Liquid Handling Platform. First, the 96-well HiBiT DNA arrays were diluted 25-fold in Opti-MEM (without serum or phenol red) to a final concentration of 0.0004 μg/μL and 20 μL of the diluted DNAs were transferred into new 96-well plates. Next, promoterless carrier DNA (1 μg/μL) was diluted 25-fold (0.04 μg/μL) and then dispensed into the diluted arrays at 20 μL/well. Following brief mixing, Viafect transfection reagent (Promega) diluted 16-fold into Opti-MEM was dispensed into the plates at 40 μL/well. After mixing by pipetting, plates were incubated for 10 min on the pipetting station deck. The DNA-transfection reagent complexes were then added to plates containing cells. To facilitate the screen, 10 μL of DNA-transfection reagent complexes were added in duplicates to the top 4 and bottom 4 rows, resulting in two identical 48-well arrays per plate. Plates with transfected cells were incubated for 18–20 h at 37 °C/5% CO2. A screen of each tracer across the entire library using two different concentrations requires duplicate plates of transfected cells. Depending on the number of tracers being screened, transfections can be scaled up using the same ratios. The next day, for each tracer, four 20× screening solutions in tracer dilution buffer (Promega) were prepared: two duplicates at final concentration of 20 μM and two duplicates at a final concentration of 2 μM. A competing unmodified compound was added to one of each duplicate at a final concentration of 400 μM. The four resulting solutions were diluted 4-fold in Opti-MEM without serum or phenol red to generate 5× solutions (5 µM and 0.5 µM tracer +/− 100 μM competing compound). To screen the library, a BioTek MultiFlo FX liquid dispenser was used to dispense 22.5 µL of tracer solution to the top 4 rows and 22.5 µL tracer + competing compound solution to the 4 bottom rows. Plates were briefly mixed on an orbital shaker and incubated for 1.5 h at room temperature. […]

SMILES strings stand for the structures. Values joined by “and” are separate entries in the source; they are usually repeats but may differ in a detail not shown here. Equal values may be shown once. Read-outs that look alike come from different tables or passages of the source.

T3 sequence (P35367 whole entry): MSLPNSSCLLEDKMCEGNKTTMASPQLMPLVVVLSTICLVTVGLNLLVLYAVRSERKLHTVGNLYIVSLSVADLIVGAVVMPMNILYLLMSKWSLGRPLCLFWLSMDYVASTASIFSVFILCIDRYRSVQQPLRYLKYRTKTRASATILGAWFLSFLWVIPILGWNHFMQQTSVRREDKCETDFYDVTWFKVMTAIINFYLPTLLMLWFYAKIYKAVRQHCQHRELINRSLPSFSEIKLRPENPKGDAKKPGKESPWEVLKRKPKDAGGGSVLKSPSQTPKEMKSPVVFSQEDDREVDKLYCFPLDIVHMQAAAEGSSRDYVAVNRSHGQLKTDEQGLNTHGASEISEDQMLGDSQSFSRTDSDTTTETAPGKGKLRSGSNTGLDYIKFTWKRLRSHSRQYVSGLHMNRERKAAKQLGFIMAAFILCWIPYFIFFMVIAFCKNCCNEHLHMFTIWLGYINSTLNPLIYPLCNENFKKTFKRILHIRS

As for `O=C(CCOCCOCCOCCOCCNC(=O)CCc1ccc2n1[B-](F)(F)[N+]1=C(c3ccc[nH]3)C=CC1=C2)NCCCN1CCN(C2=Nc3ccccc3Oc3ccc(Cl)cc32)CC1` [Loxapine-a-2-NB590], the “NanoBRET Fold Response” value on CHRM1 is 0.90 and 1.14; on CHRM3, 0.96 and 1.07; at HRH1 it was 3.64 and 4.76; on PDGFRB (PDGFRB, tracer 0.1μM), 1.12; on PDGFRB (PDGFRB, tracer 1μM) it was 1.00.
As for `CCCn1c(=O)c2[nH]c(-c3ccc(OCC(=O)NCCNC(=O)CCOCCNC(=O)c4ccc(CNC(=O)CCc5ccc6n5[B-](F)(F)[N+]5=C(c7ccc[nH]7)C=CC5=C6)cc4)cc3)nc2n(CCC)c1=O` [XAC-3-NB590], the “NanoBRET Fold Response” value at CHRM1 (CHRM1, tracer 0.1μM) came out at 1.11; on CHRM1 (CHRM1, tracer 1μM), 0.99; at CHRM3 (CHRM3, tracer 0.1μM), 0.90; on CHRM3 (CHRM3, tracer 1μM), 1.29; on HRH1 (HRH1, tracer 0.1μM), 0.95; on HRH1 (HRH1, tracer 1μM) it was 1.24. Besides, the “NanoBRET Fold Response” value at PDGFRB (PDGFRB, tracer 0.1μM) stood at 0.76; on PDGFRB (PDGFRB, tracer 1μM), 0.79.
As for `CN(C)CCC=C1c2ccccc2CCc2ccc(C(=O)NCCNC(=O)CCOCCOCCOCCOCCNC(=O)CCc3ccc4n3[B-](F)(F)[N+]3=C(c5ccc[nH]5)C=CC3=C4)cc21` [Amitriptyline-a-2-NB590], the “NanoBRET Fold Response” value was 1.17 at PDGFRB (tracer at 0.1μM) and 1.06 at PDGFRB (tracer at 1μM).
With `COc1ccccc1N1CCN(CCCCN2C(=O)c3ccc(CNC(=O)CCOCCOCCOCCOCCNC(=O)CCc4ccc5n4[B-](F)(F)[N+]4=C(c6ccc[nH]6)C=CC4=C5)cc3C2=O)CC1` [NAN-190-2-NB590], the “NanoBRET Fold Response” value worked out at 1.02 at CHRM1; 1.16 at CHRM1 (CHRM1, tracer 1μM); 0.99 at CHRM3 (CHRM3, tracer 1μM); 2.49 at HRH1 (HRH1, tracer 0.1μM); 2.31 at HRH1 (HRH1, tracer 1μM); 0.99 on PDGFRB (PDGFRB, tracer 0.1μM). Also, the “NanoBRET Fold Response” value on PDGFRB (PDGFRB, tracer 1μM) came to 1.00.
On to `O=C(CCc1ccc2n1[B-](F)(F)[N+]1=C(c3ccc[nH]3)C=CC1=C2)NCc1ccc(C(=O)NCCOCCOCCNCC(O)COc2cccc3ccccc23)cc1` (centres unmarked) [Propranolol-3-NB590], for which the “NanoBRET Fold Response” value on PDGFRB (PDGFRB, 0.1μM) turned out to be 1.05; at PDGFRB (PDGFRB, 1μM), 0.98.
Regarding `COc1ccccc1N1CCN(CCCCN2C(=O)c3ccc(CNC(=O)CCOCCNC(=O)c4ccc(CNC(=O)CCc5ccc6n5[B-](F)(F)[N+]5=C(c7ccc[nH]7)C=CC5=C6)cc4)cc3C2=O)CC1` [NAN-190-3-NB590], the “NanoBRET Fold Response” value at CHRM1 (CHRM1, tracer 0.1μM) came to 0.89; at CHRM1 (CHRM1, tracer 1μM), 0.92; on CHRM3 (CHRM3, tracer 0.1μM), 1.10; at CHRM3 (CHRM3, tracer 1μM), 1.12; on HRH1 (HRH1, tracer 0.1μM), 2.18; on HRH1 (HRH1, tracer 1μM) it was 1.84. In addition, the “NanoBRET Fold Response” value on PDGFRB (PDGFRB, tracer 0.1μM) came out at 0.93; on PDGFRB (PDGFRB, tracer 1μM), 1.07.
For `O=C(CCc1ccc2n1[B-](F)(F)[N+]1=C(c3ccc[nH]3)C=CC1=C2)NCc1ccc(C(=O)NCCOCCC(=O)N[C@@H]2CC[C@@]3(O)[C@H]4Cc5ccc(O)c6c5[C@@]3(CCN4CC3CC3)[C@H]2O6)cc1` [Naltrexone-3-NB590], the “NanoBRET Fold Response” value worked out at 0.24 on PDGFRB (PDGFRB, tracer 0.1μM) and 0.95 at PDGFRB (PDGFRB, tracer 1μM).
As for `CCOC(=O)c1cc(C#N)c(N2CCC(C(=O)NS(=O)(=O)Cc3ccccc3/C=C/C(=O)NCCNC(=O)CCc3ccc4n3[B-](F)(F)[N+]3=C(c5ccc[nH]5)C=CC3=C4)CC2)nc1C` [AZD1283-1-NB590], the “NanoBRET Fold Response” value was determined as 1.01 on CHRM1 (CHRM1, 0.1μM); 1.04 on CHRM1 (CHRM1, 1μM); 1.07 on CHRM3 (CHRM3, 0.1μM); 1.09 at CHRM3 (CHRM3, 1μM); 1.05 on HRH1 (HRH1, 0.1μM); 0.92 at HRH1 (HRH1, 1μM). The “NanoBRET Fold Response” value is recorded as 1.10 on PDGFRB (PDGFRB, 0.1μM) and 1.16 at PDGFRB (PDGFRB, 1μM).
`COc1ccc2[nH]c(-c3ccc(CNC(=O)CCOCCOCCOCCOCCNC(=O)CCc4ccc5n4[B-](F)(F)[N+]4=C(c6ccc[nH]6)C=CC4=C5)cc3)c(CCNC(C)=O)c2n1` [AzomelatoninICO9-2-NB590]: the “NanoBRET Fold Response” value at CHRM1 (0.1μM tracer) is recorded as 1.20; at CHRM1 (1μM tracer), 0.97; at CHRM3 (0.1μM tracer), 0.95; on CHRM3 (1μM tracer), 1.01; at HRH1 (0.1μM tracer) it was 0.94; at HRH1 (1μM tracer) it was 0.89. In addition, the “NanoBRET Fold Response” value at PDGFRB (0.1μM tracer) amounted to 0.80; at PDGFRB (1μM tracer), 1.04.
For the compound `CN1CCN(C2=Nc3cc(Cl)ccc3N(CC(=O)NCCOCCOCCOCCOCCNC(=O)CCc3ccc4n3[B-](F)(F)[N+]3=C(c5ccc[nH]5)C=CC3=C4)c3ccccc32)CC1` [Clozapine-c-2-NB590], the “NanoBRET Fold Response” value is on record as 1.00 on PDGFRB (PDGFRB, 0.1μM tracer) and 0.87 on PDGFRB (PDGFRB, 1μM tracer).
`O=C(CCc1ccc2n1[B-](F)(F)[N+]1=C(c3ccc[nH]3)C=CC1=C2)NCCOCCOCCNC(=O)OCCOCCN1CCN(C2=Nc3ccccc3Sc3ccccc32)CC1` [Quetiapine-a-2-NB590]: the “NanoBRET Fold Response” value was found to be 1.13 on PDGFRB (PDGFRB, tracer 0.1μM) and 1.03 at PDGFRB (PDGFRB, tracer 1μM).
Consider `Cc1cc2c(s1)Nc1ccccc1N=C2N1CCN(CCCNC(=O)CCOCCOCCOCCOCCNC(=O)CCc2ccc3n2[B-](F)(F)[N+]2=C(c4ccc[nH]4)C=CC2=C3)CC1` [Olanzapine-a-2-NB590], for which the “NanoBRET Fold Response” value on PDGFRB (PDGFRB, tracer 0.1μM) is 0.98; on PDGFRB (PDGFRB, tracer 1μM), 1.05.
For the compound `CN(C)CCC=C1c2ccccc2CCc2ccc(C(=O)NCCNC(=O)CCOCCOCCOCCOCCNC(=O)CCc3ccc4n3[B-](F)(F)[N+]3=C(c5ccc[nH]5)C=CC3=C4)cc21` [Amitriptyline-b-2-NB590], the “NanoBRET Fold Response” value at PDGFRB (tracer at 0.1μM) is 0.97; on PDGFRB (tracer at 1μM, listed as amitriptyline-b-2-NB590) it was 0.99.
Take `CN1CCN(C2=Nc3cc(Cl)ccc3Nc3ccc(CNC(=O)CCOCCOCCOCCOCCNC(=O)CCc4ccc5n4[B-](F)(F)[N+]4=C(c6ccc[nH]6)C=CC4=C5)cc32)CC1` [Clozapine-b-2-NB590]: the “NanoBRET Fold Response” value is given as 1.02 on PDGFRB (PDGFRB, 0.1μM tracer) and 0.99 on PDGFRB (PDGFRB, 1μM tracer).
`Cc1nc2n(c(=O)c1CCN1CCC(c3noc4cc(F)ccc34)CC1)CCCC2OC(=O)NCCOCCOCCOCCOCCNC(=O)CCc1ccc2n1[B-](F)(F)[N+]1=C(c3ccc[nH]3)C=CC1=C2` (centres unmarked) [Risperidone-2-NB590]: the “NanoBRET Fold Response” value was determined as 1.09 at PDGFRB (PDGFRB, tracer 0.1μM) and 0.90 on PDGFRB (PDGFRB, tracer 1μM).

For the origin of these results see paper PMC8151276, “An Integrated Approach toward NanoBRET Tracers for Analysis of GPCR Ligand Engagement” (Molecules, 2021).
